Source: patent US6617337B1, “Use of nitroxides for the treatment of essential hypertension” (Georgetown University, priority 1997, dated 2003)

What was measured:
Type in all cases: in vivo, rat
SHR = assay: Role of NO in the MAP response to constant Tempol infusion (L-NAME or norepinephrine pretreatment)
SHR and WKY rats [1] = assay: Maximal TGF responses during retrograde microperfusion of Tempol into the macula densa/JGA (Series 6); settings: for Percentage reduction in TGF normalized to the initial response: Tempol 10^−3 M retrograde; for PSF difference 0-40 nl·min^−1 (maximal TGF response) / PSF during LH perfusion at 0 nl·min^−1 / PSF during LH perfusion at 40 nl·min^−1: retrograde perfusion, ATF+Tempol 10^−3 M, mean ± SEM
Protocol: Series 4. Effects of inhibition of bNOS on maximal TGF responses in SHR and WKY. These experiments further examined the SHR hypertension model and whether the enhanced TGF of the SHR kidney is due to a blunted generation of NO by bNOS in the macula densa or whether NOS inhibition is diminished in the SHR model. Groups of SHR and age-matched WKY rats were prepared for in vivo micropuncture, microperfusion, and TGF studies as described in detail previously. In brief, animals were anesthetized with thiobarbital (Inactin, 100 mg·kg^−1; Research Biochemicals, Inc., Natick, Mass.). A catheter was placed in a jugular vein for fluid infusion and in a femoral artery for recording of mean arterial pressure (MAP) from the electrically damped output of a pressure transducer (Statham, Inc.). A tracheotomy tube was inserted and the animals were allowed to breathe spontaneously. The left kidney was exposed by a flank incision, cleaned of connective tissue, and stabilized in a Lucite cup. This kidney was bathed in 0.154 M NaCl maintained at 37° C. After completion of surgery, rats were infused with a solution of 0.154 M NaCl and 1% albumin at 1.5 ml·h^−1 to maintain a euvolemic state. Micropuncture studies were begun after 60 min for stabilization.
For orthograde microperfusion of the loop of Henle (LH), a micropipette (8 μm OD) containing artificial tubular fluid (ATF) stained with FD&C dye was inserted into a late proximal tubule. Injections of the colored ATF identified the nephron and the direction of flow. An immobile bone wax block was inserted into this micropuncture site via a micropipette (10-15 μm) and connected to a hydraulic drive (Trent Wells, Inc., LaJolla, Calif.) to halt tubular fluid flow. A perfusion micropipette (6-8 μm) containing ATF and test compounds or vehicle was inserted into the proximal tubule downstream from the wax block and connected to a nanoliter perfusion pump (WPI, Sarasota, Fla.). A pressure micropipette (1-2 μm) was inserted into the proximal tubule upstream from the wax block to measure proximal stop flow pressure (PSF). Changes in PSF are an index of changes in glomerular capillary hydraulic pressure (PGC). Measurements of PSF were made in each nephron during zero loop perfusion and during perfusion with ATF at 40 nl·min^−1, which produces a maximal TGF response, defined as the difference between PSF values recorded during perfusion of the loop with ATF at 0 and 40 nl·min^−1.
Groups of SHR (n=5) and WKY rats (n=5) were prepared for studies of retrograde microperfusion into the macula densa. […] Therefore, these studies of TGF were conducted with retrograde microperfusion from the early distal (ED) tubule into the macula densa. After identifying the nephron with FD&C green, the last proximal convolution was vented and a wax block placed upstream. A micropipette (8-10 μm OD) was inserted into the ED tubule upstream from an oil droplet. The loop of Henle was perfused retrogradely with perfusate entering the macula densa segment directly at 0 and 20 nl·min^−1. This represents a maximal activation for TGF by retrograde perfusion. […] Therefore, this dose was used thereafter in the test animals (Dosage/kg would usually be lower in larger animals). Comparisons were made of maximum TGF responses obtained during perfusion of ATF+vehicle (ethanol) and ATF+Tempol.

SHR and WKY rats [2] = assay: MAP and renal hemodynamics during bolus intravenous injection of Tempol in anesthetized rats; settings: for Decrease in MAP: Tempol 72 μmol/kg IV; for RBF during Tempol: dose not specified (24 and 72 μmol/kg studied)
Protocol: In the first group, the short-term actions of Tempol were determined in anesthetized rats. […] The following data was obtained:
Materials and Methods. In Examples 3 to 6, groups of male SHR and WKY rats (200 to 300 g) were maintained on tap water and standard chow (Harlan-Teklad Inc.). […] In order to do this experiment, WKY (n=6) and SHR (n=6) were anesthetized with thiobutabarbital (100 mg/kg i.p., Inactin, Research Biochemicals International) and maintained at 37° C. on a servocontrolled heated rodent operating table. A tracheostomy was performed with polyethylene PE-240 tubing, and the left jugular vein and carotid artery were cannulated with PE-50 tubing. Intravenous infusion of 1% albumin dissolved in 0.154 M NaCl solution was infused at 2 mL/h i.v. to maintain an euvolemic state. A midline incision was made, and the left renal artery was isolated. A blood-flow probe was placed around the renal artery and connected to a transit-time blood flowmeter (1RB, Transonic Systems Inc.). We have previously shown that this method of measuring real-time changes in RBF is valid in the rat (Welch et al., 1995 Am. J. Physiol. 37: F175-F178).
MAP was continuously recorded from the carotid artery using a Statham pressure transducer (model P23, Gould Instruments) and MACLab data acquisition program. After 60 minutes of equilibration, there was a basal period for measurement of MAP and RBF over 30 minutes.

SHR and WKY rats [3] = assay: MAP during constant intravenous infusion of Tempol in anesthetized rats (dose-response); settings: Tempol 1,800 μmol·kg^−1·h^−1 i.v. infusion, 30 minutes
SHR and WKY rats [4] = assay: MAP after 7 days of intraperitoneal Tempol; settings: Tempol 250 mg/kg/day intraperitoneally for 7 days
[5] = SHR, Tempol 4 mg/kg intravenously
[6] = WKY, Tempol 4 mg/kg intravenously

SMILES: CC1(C)CC(O)CC(C)(C)N1[O] [Tempol, 4-hydroxy-2,2,6,6-tetramethyl-1-piperidinyloxy]
- Decrease in MAP (SHR; SHR infused with norepinephrine, Tempol infusion): 14%
- MAP during Tempol infusion (SHR; SHR infused with norepinephrine, Tempol infusion, P<0.05): 161±7 mm Hg
- MAP during Tempol infusion (SHR; SHR pretreated with L-NAME, Tempol infusion 30 minutes, unchanged): 186±4 mm Hg
- MAP (SHR; SHR, saline vehicle pretreatment, Tempol infusion 180 μmol·kg^−1·min^−1 (so in the source) for 30 minutes): 121±17 mm Hg
- Decrease in MAP (SHR; SHR, saline vehicle pretreatment, Tempol infusion for 30 minutes, P<0.05): 32%
- Percentage reduction in TGF normalized to the initial response (SHR and WKY rats [1]; SHR): −26±2%
- PSF difference 0-40 nl·min^−1 (maximal TGF response) (SHR and WKY rats [1]; SHR): 8.5 ± 0.8 mm Hg
- PSF during LH perfusion at 0 nl·min^−1 (SHR and WKY rats [1]; SHR): 40.8 ± 0.8 mm Hg
- PSF during LH perfusion at 40 nl·min^−1 (SHR and WKY rats [1]; SHR): 32.1 ± 0.9 mm Hg
- Percentage reduction in TGF normalized to the initial response (SHR and WKY rats [1]; WKY): −17±3%
- PSF difference 0-40 nl·min^−1 (maximal TGF response) (SHR and WKY rats [1]; WKY): 6.7 ± 0.4 mm Hg
- PSF during LH perfusion at 0 nl·min^−1 (SHR and WKY rats [1]; WKY): 34.7 ± 0.8 mm Hg
- PSF during LH perfusion at 40 nl·min^−1 (SHR and WKY rats [1]; WKY): 28.0 ± 0.9 mm Hg
- Maximally effective dose (preliminary studies, effects reversible) (SHR and WKY rats [1]; retrograde microperfusion into the macula densa): 10^−3 M
- MAP (SHR and WKY rats [2]; SHR, Tempol 24 μmol/kg IV bolus): 147±4 mm Hg
- RVR (SHR and WKY rats [2]; SHR, Tempol 72 μmol/kg): 17±2 mm Hg·mL^−1·min^−1
- MAP (SHR and WKY rats [2]; SHR, Tempol 72 μmol/kg IV bolus): 104±9 mm Hg
- Decrease in MAP (SHR and WKY rats [2]; SHR, P<0.05): 28%
- Decrease in RVR (SHR and WKY rats [2]; SHR, Tempol 72 μmol/kg, P<0.05): 29%
- MAP (SHR and WKY rats [2]; [5]): 108±8 mm Hg
- RVR (SHR and WKY rats [2]; [5]): 17±2 mm Hg/ml/min
- MAP (SHR and WKY rats [2]; SHR, Tempol 12 mg/kg intravenously): 80±5 mm Hg
- RBF during Tempol (SHR and WKY rats [2]; SHR): 6.7 ± 0.8 mL/min
- RVR (SHR and WKY rats [2]; SHR, low-dose Tempol (24 μmol/kg)): 24±3 mm Hg·mL^−1·min^−1
- MAP (SHR and WKY rats [2]; WKY, Tempol 24 μmol/kg IV bolus): 114±5 mm Hg
- RVR (SHR and WKY rats [2]; WKY, Tempol 72 μmol/kg): 15±1 mm Hg·mL^−1·min^−1
- MAP (SHR and WKY rats [2]; WKY, Tempol 72 μmol/kg IV bolus): 96±6 mm Hg
- Decrease in MAP (SHR and WKY rats [2]; WKY, P<0.05): 11%
- MAP (SHR and WKY rats [2]; [6]): 98±6 mm Hg
- RVR (SHR and WKY rats [2]; [6]): 15±1 mm Hg/ml/min
- MAP (SHR and WKY rats [2]; WKY, Tempol 12 mg/kg intravenously): 99±7 mm Hg
- RBF during Tempol (SHR and WKY rats [2]; WKY): 6.6 ± 0.7 mL/min
- RVR (SHR and WKY rats [2]; WKY, low-dose Tempol (24 μmol/kg)): 17±1 mm Hg·mL^−1·min^−1
- MAP (SHR and WKY rats [3]; SHR): 72±10 mm Hg
- MAP (SHR and WKY rats [3]; WKY): 71±3 mm Hg
- MAP after treatment (SHR and WKY rats [4]; SHR, from 133±2, p<0.01): 120±3 mm Hg
- Effect on MAP (SHR and WKY rats [4]; WKY): no effect
